Source: US20250082797A1, “Methods for In Vivo Tracking of Cells” (Wisconsin Alumni Research Foundation, priority 2023, published 2025)

Test system: cell line U937
Assay: Optimization of glycan oxidation conditions, cell viability by trypan blue staining
Type: cell-based
Procedure: Method 2: Conditions for biocompatible oxime ligation and ^89Zr-labeling of monocytes. Reactive aldehydes were generated on the cell surface of the monocytic cell line U937 through sialic acid oxidation with NaIO4. Oxidation conditions were optimized by varying NaIO4 concentration (0.1-10 mM), pH (4.6-7.4), temperature (4 or 37° C.), and incubation time (15 min to 2 h). Subsequently, cells were incubated with AOD (100-500 μM) at room temperature for up to 1 h in the presence of aniline, and cells were washed and resuspended in PBS. Next, AOD-conjugated (5-7×10^6) cells were radiolabeled with ^89Zr (37-74 MBq) at room temperature for 1h, then washed thrice to eliminate unlabeled ^89Zr, and the radiochemical yield was measured by TLC (FIG. 9A-9D). Cell viability was assessed at each step via trypan blue staining (FIG. 8).

**Q.** `[Na+].[O-][I+3]([O-])([O-])[O-]` [sodium periodate] was tested. Which “viability of U937 cells after oxidation” value (1 mM, up to 1 hour) did it give?
**A.** over 90%

**Q.** What about the “effect of glycan oxidation on cell viability, in words” value (tested temperature and reaction times) of the same compound?
**A.** minimal effect on cell viability
